# ChEMBL document CHEMBL5291721, “A preclinical secondary pharmacology resource illuminates target-adverse drug reaction associations of marketed drugs” (Nat Commun, 2023)
# What was measured:
# [1] = molecular target: Muscarinic acetylcholine receptor M3 (Homo sapiens, UniProt P20309)
# [2] = molecular target: Delta-type opioid receptor (Homo sapiens, UniProt P41143)
# [3] = molecular target: T1, Neuropeptide Y receptor type 1 (Homo sapiens, UniProt P25929); settings: read-out: AC50
# T1 sequence (P25929 whole entry): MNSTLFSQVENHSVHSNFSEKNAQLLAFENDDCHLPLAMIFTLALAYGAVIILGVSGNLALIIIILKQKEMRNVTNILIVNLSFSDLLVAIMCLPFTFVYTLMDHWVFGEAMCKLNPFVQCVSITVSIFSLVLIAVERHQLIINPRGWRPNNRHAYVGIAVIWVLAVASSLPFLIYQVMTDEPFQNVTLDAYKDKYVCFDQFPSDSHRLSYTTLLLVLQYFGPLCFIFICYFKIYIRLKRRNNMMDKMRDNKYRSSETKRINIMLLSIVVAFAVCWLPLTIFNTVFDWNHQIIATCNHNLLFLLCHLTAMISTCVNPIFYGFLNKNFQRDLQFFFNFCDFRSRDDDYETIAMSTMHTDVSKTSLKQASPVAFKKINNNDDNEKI
# [4] = molecular target: Gamma-aminobutyric acid receptor subunit alpha-1 (Rattus norvegicus, UniProt P62813)
# Vasopressin V2 receptor = Vasopressin V2 receptor (Homo sapiens, UniProt P30518)
# Adenosine receptor A1 = molecular target: T2, Adenosine receptor A1 (Homo sapiens, UniProt P30542)
# T2 sequence (P30542 whole entry): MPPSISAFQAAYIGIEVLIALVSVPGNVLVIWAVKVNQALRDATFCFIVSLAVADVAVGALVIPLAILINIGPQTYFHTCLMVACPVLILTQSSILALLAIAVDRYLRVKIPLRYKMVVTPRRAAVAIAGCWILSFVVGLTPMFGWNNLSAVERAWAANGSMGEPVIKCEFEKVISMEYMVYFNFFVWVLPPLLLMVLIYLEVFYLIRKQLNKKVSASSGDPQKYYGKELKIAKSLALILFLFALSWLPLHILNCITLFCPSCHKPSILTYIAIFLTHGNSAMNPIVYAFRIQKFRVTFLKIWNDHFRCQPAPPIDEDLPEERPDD
# [5] = molecular target: T3, Muscarinic acetylcholine receptor M1 (Homo sapiens, UniProt P11229); format: functional
# T3 sequence (P11229 whole entry): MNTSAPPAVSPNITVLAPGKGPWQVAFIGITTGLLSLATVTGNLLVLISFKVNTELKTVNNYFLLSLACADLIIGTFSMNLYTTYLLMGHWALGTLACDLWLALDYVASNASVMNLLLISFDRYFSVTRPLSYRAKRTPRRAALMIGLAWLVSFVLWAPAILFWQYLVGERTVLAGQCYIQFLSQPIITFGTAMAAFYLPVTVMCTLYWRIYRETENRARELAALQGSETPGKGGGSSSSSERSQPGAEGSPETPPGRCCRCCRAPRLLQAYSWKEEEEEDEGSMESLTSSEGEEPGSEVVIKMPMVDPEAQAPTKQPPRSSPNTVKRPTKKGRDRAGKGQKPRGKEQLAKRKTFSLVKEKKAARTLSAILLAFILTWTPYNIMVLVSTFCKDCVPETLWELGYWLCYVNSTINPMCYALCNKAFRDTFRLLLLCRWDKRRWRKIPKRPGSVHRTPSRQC
# [6] = molecular target: T4, Alpha-1A adrenergic receptor (Homo sapiens, UniProt P35348); format: functional, cell-based
# T4 sequence (P35348 whole entry): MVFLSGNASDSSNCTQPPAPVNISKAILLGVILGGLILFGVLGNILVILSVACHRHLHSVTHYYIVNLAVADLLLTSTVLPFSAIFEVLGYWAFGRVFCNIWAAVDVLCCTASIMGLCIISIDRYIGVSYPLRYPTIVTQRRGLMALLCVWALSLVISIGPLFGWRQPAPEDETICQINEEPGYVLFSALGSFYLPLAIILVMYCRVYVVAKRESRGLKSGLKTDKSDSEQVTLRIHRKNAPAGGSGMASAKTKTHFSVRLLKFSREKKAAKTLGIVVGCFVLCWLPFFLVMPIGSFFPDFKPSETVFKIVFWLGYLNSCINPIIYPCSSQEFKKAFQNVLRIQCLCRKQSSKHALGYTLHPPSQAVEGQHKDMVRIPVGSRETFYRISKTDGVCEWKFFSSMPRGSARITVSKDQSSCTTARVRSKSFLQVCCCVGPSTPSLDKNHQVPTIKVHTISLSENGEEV
# Progesterone receptor = molecular target: T5, Progesterone receptor (Homo sapiens, UniProt P06401); format: functional
# T5 sequence (P06401 whole entry): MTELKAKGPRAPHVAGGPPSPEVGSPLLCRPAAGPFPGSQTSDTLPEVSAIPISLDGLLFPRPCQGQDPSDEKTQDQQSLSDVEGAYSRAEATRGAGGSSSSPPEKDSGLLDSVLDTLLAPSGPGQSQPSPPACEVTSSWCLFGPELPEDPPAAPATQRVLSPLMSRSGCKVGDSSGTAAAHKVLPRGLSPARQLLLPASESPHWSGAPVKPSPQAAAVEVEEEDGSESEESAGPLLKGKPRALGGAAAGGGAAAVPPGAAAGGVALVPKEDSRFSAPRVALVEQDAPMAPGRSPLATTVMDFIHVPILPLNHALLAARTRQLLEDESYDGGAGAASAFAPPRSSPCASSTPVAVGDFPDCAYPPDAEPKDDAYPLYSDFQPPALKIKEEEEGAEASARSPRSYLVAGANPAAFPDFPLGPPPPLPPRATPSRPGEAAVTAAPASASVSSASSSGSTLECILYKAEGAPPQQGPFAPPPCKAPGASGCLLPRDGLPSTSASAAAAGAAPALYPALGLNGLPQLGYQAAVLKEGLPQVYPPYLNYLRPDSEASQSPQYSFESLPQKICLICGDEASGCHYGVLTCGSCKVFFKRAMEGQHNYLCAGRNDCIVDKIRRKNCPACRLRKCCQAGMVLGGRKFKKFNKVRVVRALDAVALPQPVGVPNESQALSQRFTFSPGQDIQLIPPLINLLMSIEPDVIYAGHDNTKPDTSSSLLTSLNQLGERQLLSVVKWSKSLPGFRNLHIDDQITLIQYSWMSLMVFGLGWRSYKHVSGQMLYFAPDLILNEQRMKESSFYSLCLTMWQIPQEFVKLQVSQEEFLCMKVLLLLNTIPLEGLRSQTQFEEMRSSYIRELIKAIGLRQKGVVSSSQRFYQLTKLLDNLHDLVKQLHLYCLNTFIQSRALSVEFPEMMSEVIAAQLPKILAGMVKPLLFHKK
# Histamine H2 receptor = Histamine H2 receptor (Homo sapiens, UniProt P25021); format: functional, cell-based
# [7] = molecular target: 3',5'-cyclic-AMP phosphodiesterase 4D (Homo sapiens, UniProt Q08499); format: functional
# Note: assay procedure not described here.
# Sequence of 3',5'-cyclic-AMP phosphodiesterase 4D (Q08499 whole entry): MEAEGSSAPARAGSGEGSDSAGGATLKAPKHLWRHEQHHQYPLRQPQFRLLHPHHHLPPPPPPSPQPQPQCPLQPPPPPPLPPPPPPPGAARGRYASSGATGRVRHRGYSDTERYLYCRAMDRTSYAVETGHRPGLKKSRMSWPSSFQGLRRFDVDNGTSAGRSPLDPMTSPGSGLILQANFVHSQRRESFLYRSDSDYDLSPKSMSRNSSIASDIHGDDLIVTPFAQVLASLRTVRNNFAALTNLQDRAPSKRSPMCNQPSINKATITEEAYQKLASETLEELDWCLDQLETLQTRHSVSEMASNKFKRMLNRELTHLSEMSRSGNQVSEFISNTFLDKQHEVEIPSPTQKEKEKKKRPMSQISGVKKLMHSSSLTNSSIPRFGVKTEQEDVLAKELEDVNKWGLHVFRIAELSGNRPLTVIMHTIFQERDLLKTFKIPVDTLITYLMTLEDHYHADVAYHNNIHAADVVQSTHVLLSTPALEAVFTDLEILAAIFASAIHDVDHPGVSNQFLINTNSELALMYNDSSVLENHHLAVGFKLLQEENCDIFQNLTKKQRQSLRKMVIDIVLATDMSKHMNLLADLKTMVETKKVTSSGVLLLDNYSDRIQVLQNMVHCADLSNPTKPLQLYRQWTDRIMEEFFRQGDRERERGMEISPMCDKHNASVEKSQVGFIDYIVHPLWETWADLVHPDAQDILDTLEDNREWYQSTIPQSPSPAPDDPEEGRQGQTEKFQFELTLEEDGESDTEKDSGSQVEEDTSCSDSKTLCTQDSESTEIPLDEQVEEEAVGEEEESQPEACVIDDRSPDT
# Sequence of Gamma-aminobutyric acid receptor subunit alpha-1 (P62813 whole entry): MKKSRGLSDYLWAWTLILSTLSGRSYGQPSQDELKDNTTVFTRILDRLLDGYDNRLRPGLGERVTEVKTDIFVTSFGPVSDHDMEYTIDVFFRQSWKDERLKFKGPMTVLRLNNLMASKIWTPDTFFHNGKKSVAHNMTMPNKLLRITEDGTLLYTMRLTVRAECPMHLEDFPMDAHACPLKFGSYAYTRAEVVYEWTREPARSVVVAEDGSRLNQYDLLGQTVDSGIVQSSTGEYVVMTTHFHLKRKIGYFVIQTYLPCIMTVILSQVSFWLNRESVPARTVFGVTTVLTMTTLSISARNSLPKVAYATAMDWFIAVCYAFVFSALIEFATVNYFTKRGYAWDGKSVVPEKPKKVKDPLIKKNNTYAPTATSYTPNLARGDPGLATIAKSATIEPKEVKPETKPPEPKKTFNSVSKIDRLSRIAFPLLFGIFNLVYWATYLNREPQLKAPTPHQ
# Sequence of Muscarinic acetylcholine receptor M3 (P20309 whole entry): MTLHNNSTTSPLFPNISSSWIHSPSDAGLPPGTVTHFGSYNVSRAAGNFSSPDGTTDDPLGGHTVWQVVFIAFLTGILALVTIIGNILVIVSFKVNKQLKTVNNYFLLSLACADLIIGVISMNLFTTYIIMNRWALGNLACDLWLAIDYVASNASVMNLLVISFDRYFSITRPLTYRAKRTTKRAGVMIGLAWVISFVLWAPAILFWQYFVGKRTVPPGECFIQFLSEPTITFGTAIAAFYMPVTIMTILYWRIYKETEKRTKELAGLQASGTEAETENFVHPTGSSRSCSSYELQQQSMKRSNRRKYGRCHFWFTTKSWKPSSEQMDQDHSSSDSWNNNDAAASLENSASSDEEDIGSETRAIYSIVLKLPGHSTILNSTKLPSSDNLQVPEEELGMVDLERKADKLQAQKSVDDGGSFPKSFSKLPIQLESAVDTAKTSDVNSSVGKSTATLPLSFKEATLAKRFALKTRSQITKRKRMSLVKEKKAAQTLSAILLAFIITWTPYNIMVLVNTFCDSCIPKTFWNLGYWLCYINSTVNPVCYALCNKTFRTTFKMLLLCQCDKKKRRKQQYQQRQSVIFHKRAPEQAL
# Sequence of Delta-type opioid receptor (P41143 whole entry): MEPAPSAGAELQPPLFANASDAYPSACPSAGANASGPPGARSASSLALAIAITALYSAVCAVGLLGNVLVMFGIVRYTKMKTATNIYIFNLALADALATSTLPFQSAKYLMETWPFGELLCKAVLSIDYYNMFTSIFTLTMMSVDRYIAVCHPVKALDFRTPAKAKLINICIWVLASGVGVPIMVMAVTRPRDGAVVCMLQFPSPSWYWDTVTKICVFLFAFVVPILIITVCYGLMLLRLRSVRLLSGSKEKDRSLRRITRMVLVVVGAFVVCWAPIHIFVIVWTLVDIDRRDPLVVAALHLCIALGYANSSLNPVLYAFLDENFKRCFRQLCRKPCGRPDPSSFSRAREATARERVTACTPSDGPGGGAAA
# Sequence of Vasopressin V2 receptor (P30518 whole entry): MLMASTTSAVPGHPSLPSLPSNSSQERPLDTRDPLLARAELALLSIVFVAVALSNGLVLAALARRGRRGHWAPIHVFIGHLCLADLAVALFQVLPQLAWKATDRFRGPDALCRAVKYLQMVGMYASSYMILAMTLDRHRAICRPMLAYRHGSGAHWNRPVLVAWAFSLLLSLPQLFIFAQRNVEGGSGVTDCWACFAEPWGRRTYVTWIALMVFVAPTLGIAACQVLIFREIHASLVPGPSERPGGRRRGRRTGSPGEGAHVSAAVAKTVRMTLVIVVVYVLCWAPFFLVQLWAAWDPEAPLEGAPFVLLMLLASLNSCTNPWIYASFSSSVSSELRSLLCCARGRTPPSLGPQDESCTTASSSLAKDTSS
# Sequence of Histamine H2 receptor (P25021 whole entry): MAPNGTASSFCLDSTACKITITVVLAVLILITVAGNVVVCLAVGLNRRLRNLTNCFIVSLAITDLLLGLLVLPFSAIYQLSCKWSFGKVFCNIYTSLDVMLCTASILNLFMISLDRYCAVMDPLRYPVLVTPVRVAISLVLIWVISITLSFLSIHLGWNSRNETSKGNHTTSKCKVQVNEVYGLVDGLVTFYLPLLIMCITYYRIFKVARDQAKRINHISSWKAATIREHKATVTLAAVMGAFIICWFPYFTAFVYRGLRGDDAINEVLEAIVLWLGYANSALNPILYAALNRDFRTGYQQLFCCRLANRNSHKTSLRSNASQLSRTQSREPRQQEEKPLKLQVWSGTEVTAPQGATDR
SMILES,AC50 [1] [µM],AC50 [2] [µM],AC50 [3] [µM],AC50 [4] [µM],AC50 (Vasopressin V2 receptor) [µM],AC50 (Adenosine receptor A1) [µM],AC50 [5] [µM],AC50 [6] [µM],AC50 (Progesterone receptor) [µM],AC50 (Histamine H2 receptor) [µM],AC50 [7] [µM]
CCOC(=O)O[C@]1(C(=O)OCCl)CC[C@H]2[C@@H]3CCC4=CC(=O)C=C[C@]4(C)[C@H]3[C@@H](O)C[C@@]21C [LOTEPREDNOL ETABONATE],> 30,> 30,> 30,> 30,> 30,> 30,> 30,> 30,0.024,> 30,> 30
CC(=O)O[C@H](CC(=O)[O-])C[N+](C)(C)C [ACETYLCARNITINE],> 30,> 30,> 30,> 30,> 30,> 30,> 30,> 30,> 30,> 30,> 30
CCCCCCCCCCCCCCCCCCCCCC(=O)Nc1ccn([C@@H]2O[C@H](CO)[C@@H](O)[C@@H]2O)c(=O)n1 [ENOCITABINE],> 30,> 30,> 30,> 30,> 30,> 30,> 30,> 30,> 30,> 30,> 30
O=C(O)c1ccccc1Nc1cc(Cl)ccc1C(=O)O [LOBENZARIT],> 30,> 30,> 30,> 30,> 30,> 30,> 30,> 30,> 30,> 30,> 30
Oc1ccc2c(c1)[C@@]13CCCC[C@@]1(O)[C@@H](C2)N(CC1CCC1)CC3 [BUTORPHANOL],> 30,0.18,> 30,–,> 30,> 30,> 30,> 30,> 30,> 30,> 30
CCC(COC(=O)c1cc(OC)c(OC)c(OC)c1)(c1ccccc1)N(C)C (stereo unspecified) [TRIMEBUTINE],> 30,4,> 30,> 30,> 30,> 30,> 30,> 30,> 30,> 30,26
C=C1/C(=C\C=C2/CCC[C@]3(C)[C@@H]([C@H](C)/C=C/[C@@H](O)C4CC4)CC[C@@H]23)C[C@@H](O)C[C@@H]1O [CALCIPOTRIENE],> 30,> 30,> 30,> 30,> 30,> 30,> 30,> 30,> 30,> 30,> 30
C=C[C@@]1(C)CC(=O)[C@]2(O)[C@@]3(C)[C@@H](O)CCC(C)(C)[C@@H]3[C@H](O)[C@H](OC(C)=O)[C@@]2(C)O1 [COLFORSIN],> 30,> 30,> 30,> 30,> 30,> 30,> 30,3.5,> 30,–,> 30
CC(=O)OCC(=O)[C@@]1(O)[C@H](C)C[C@H]2[C@@H]3CCC4=CC(=O)C=C[C@]4(C)[C@@]3(F)[C@@H](O)C[C@@]21C [DEXAMETHASONE ACETATE],> 30,> 30,> 30,> 10,> 30,> 30,> 10,> 30,–,> 10,> 30
Cc1ncc2n1-c1ccc(Cl)cc1C(c1ccccc1F)=NC2 [MIDAZOLAM],> 30,> 30,> 30,> 10,> 30,> 30,> 10,> 30,–,> 30,10
